≈ marks a conversion by molar mass, not a printed value.
Assays:
S1 = assay: MIC determination (bacteria), strain S1; assay type: cell-based, S. aureus; conditions: 2-fold broth dilution
Description: (§1) MIC determination (bacteria); MICs were determined based on Clinical and Laboratory Standards Institute (CLSI) methodology (Methods for dilution antimicrobial susceptibility tests for bacteria that grow aerobically; Approved Standard—seventh edition. 2006, M7-A7, CLSI, Wayne Pa.) by a 2-fold broth dilution technique in Mueller Hinton (pH7.4 Biorad). For S. pneumoniae, the medium was supplemented with 2.5% laked horse blood. For H. influenzae, the medium was haemophilus test medium (H.T.M.). Overnight cultures were diluted to obtain the final inoculum of 10^5 cfu/well. Incubation was 37° C. overnight in ambient air. The MIC was defined as the lowest concentration which inhibited all visual growth and expressed in μg/ml. For each bacterial species, all of the molecules were tested in the same experiment in order to give a head-to-head comparison.

H4 = assay: MIC determination (bacteria), strain H4; assay type: cell-based, H. influenzae; conditions: haemophilus test medium
Description: as §1

P9 = assay: MIC determination (bacteria), strain P9; assay type: cell-based, S. pneumoniae; conditions: 2-fold broth dilution
Description: as §1

H3 = assay: MIC determination (bacteria), strain H3; assay type: cell-based, H. influenzae; conditions: haemophilus test medium
Description: as §1

E2 = assay: MIC determination (bacteria), strain E2; assay type: cell-based, enterococcus; conditions: 2-fold broth dilution
Description: as §1

P1 = assay: MIC determination (bacteria), strain P1; assay type: cell-based, S. pneumoniae; conditions: 2-fold broth dilution
Description: as §1

S4 = assay: MIC determination (bacteria), strain S4; assay type: cell-based, S. aureus; conditions: 2-fold broth dilution
Description: as §1

P9B = assay: MIC determination (bacteria), strain P9B; assay type: cell-based, S. pneumoniae; conditions: 2-fold broth dilution
Description: as §1

[1] = system: S2 (S. aureus 2, MRSA in vivo); assay: MIC determination (bacteria), strain S2; assay type: cell-based; conditions: 2-fold broth dilution
Description: as §1

E1 = assay: MIC determination (bacteria), strain E1; assay type: cell-based, enterococcus; conditions: 2-fold broth dilution
Description: as §1

S26 = assay: MIC determination (bacteria), strain S26; assay type: cell-based, S. aureus; conditions: 2-fold broth dilution
Description: as §1

[2] = system: mammalian_red blood cell membrane; assay: In vitro mammalian red blood cell membrane lysis activity; assay type: cell-based; conditions: Active or inactive at 100 μM
From the text: (§2) These properties can be determined according to techniques that are well known in the art.

[3] = system: human embryonic kidney 293 cells; assay: in vitro toxicities against human embryonic kidney 293 cells; assay type: cell-based; conditions: human embryonic kidney 293 cells
From the text: as §2

S. aureus membrane = assay: In vitro activity in depolarization of S. aureus membrane; assay type: cell-based; conditions: read-out: DEP (IC50)
From the text: as §2

[4] = system: human peripheral blood cells; assay: in vitro toxicities human peripheral blood cells; assay type: cell-based; conditions: human peripheral blood cells
From the text: as §2

Structure (SMILES)	MIC S1 (S1; Table 2)	MIC H4 (H4; Table 2 and its footnote f)	MIC P9 (P9; Table 2)	MIC H3 (H3; Table 2)	MIC E2 (E2; Table 2)	MIC S1 (S1; Table 1)	MIC H4 (H4; Table 1)	RBC membrane lysis activity (active/inactive) [2]	Hek293 (LD50, μM) [3]	MIC P9 (P9; Table 1)	MIC H3 (H3; Table 1)	MIC E2 (E2; Table 1)	MIC P1 (P1; Table 1)	MIC S4 (S4; Table 1)	MIC P9B (P9B; Table 1)	IC50 (S. aureus membrane)	MIC S2 ([1]; Table 1)	PMBC (LD50, μM) [4]	MIC E1 (E1; Table 1)	MIC S26 (S26; Table 1)	further results
O=C1CCN(C(=O)c2ccccc2)C(=O)C1=C(O)CCCCC1CCCCC1 [19c]	1 µg/mL (≈ 2.61 µM)	8 µg/mL (≈ 20.9 µM)	1 µg/mL (≈ 2.61 µM)	16 µg/mL (≈ 41.7 µM)	2 µg/mL (≈ 5.22 µM)																MIC P1 (P1; Table 2): 1 µg/mL (≈ 2.61 µM); MIC S4 (S4; Table 2): 2 µg/mL (≈ 5.22 µM); MIC P9B (P9B; Table 2): 4 µg/mL (≈ 10.4 µM); MIC S2 ([1]; Table 2): 2 µg/mL (≈ 5.22 µM); MIC E1 (E1; Table 2): 2 µg/mL (≈ 5.22 µM); MIC S26 (S26; Table 2): 2 µg/mL (≈ 5.22 µM)
O=C1CCN(C(=O)c2ccccc2)C(=O)/C1=C(\O)CCc1ccc(-c2ccccc2C(F)(F)F)o1 [19e]	4 µg/mL (≈ 8.27 µM)	16 µg/mL (≈ 33.1 µM)	2 µg/mL (≈ 4.14 µM)	>64 µg/mL	2 µg/mL (≈ 4.14 µM)																MIC P1 (P1; Table 2): 2 µg/mL (≈ 4.14 µM); MIC S4 (S4; Table 2): 4 µg/mL (≈ 8.27 µM); MIC P9B (P9B; Table 2): 8 µg/mL (≈ 16.5 µM); MIC S2 ([1]; Table 2): 4 µg/mL (≈ 8.27 µM); MIC E1 (E1; Table 2): 2 µg/mL (≈ 4.14 µM); MIC S26 (S26; Table 2): 4 µg/mL (≈ 8.27 µM)
CCCCCCCC=CC(=O)N1C(=O)C(=C(C)O)C(=O)C1CC(C)C (stereo not drawn) [23a]						8 µg/mL (≈ 22.9 µM)	4 µg/mL (≈ 11.4 µM)	Inactive^d	90.9 µM	1 µg/mL (≈ 2.86 µM)	64 µg/mL (≈ 183 µM)	4 µg/mL (≈ 11.4 µM)	2 µg/mL (≈ 5.72 µM)	8 µg/mL (≈ 22.9 µM)	4 µg/mL (≈ 11.4 µM)	88 µM	8 µg/mL (≈ 22.9 µM)	90.9 µM	8 µg/mL (≈ 22.9 µM)	16 µg/mL (≈ 45.8 µM)	
CCCCCCCC=CC(=O)N1C(=O)C(=C(O)CCC)C(=O)C1CC(C)C (stereo not drawn) [23b]						<0.06 µg/mL	2 µg/mL (≈ 5.3 µM)	Inactive^d	90.9 µM	0.12 µg/mL (≈ 0.318 µM)	>64 µg/mL	<0.06 µg/mL	0.25 µg/mL (≈ 0.662 µM)	0.25 µg/mL (≈ 0.662 µM)	1 µg/mL (≈ 2.65 µM)	49.5 µM	0.25 µg/mL (≈ 0.662 µM)	90.9 µM	0.25 µg/mL (≈ 0.662 µM)	0.5 µg/mL (≈ 1.32 µM)	
CCCCCCCC=CC(=O)N1C(=O)C(=C(O)CCCCC)C(=O)C1CC(C)C (stereo not drawn) [23c]						0.25 µg/mL (≈ 0.616 µM)		Inactive^d	30.3 µM	<0.06 µg/mL	>64 µg/mL	0.12 µg/mL (≈ 0.296 µM)	<0.06 µg/mL	0.5 µg/mL (≈ 1.23 µM)	2 µg/mL (≈ 4.93 µM)	19.6 µM	0.5 µg/mL (≈ 1.23 µM)	30.3 µM	0.25 µg/mL (≈ 0.616 µM)	0.5 µg/mL (≈ 1.23 µM)	
CCCCCCCCCCC(O)=C1C(=O)C(CCSC)N(C(C)=O)C1=O (stereo not drawn) [24a]						0.5 µg/mL (≈ 1.3 µM)	4 µg/mL (≈ 10.4 µM)			0.25 µg/mL (≈ 0.652 µM)	8 µg/mL (≈ 20.9 µM)	0.5 µg/mL (≈ 1.3 µM)	0.5 µg/mL (≈ 1.3 µM)	4 µg/mL (≈ 10.4 µM)	2 µg/mL (≈ 5.21 µM)		2 µg/mL (≈ 5.21 µM)		0.5 µg/mL (≈ 1.3 µM)	8 µg/mL (≈ 20.9 µM)	
CCCCCC(O)=C1C(=O)C(CCSC)N(C(=O)C2CCCCC2)C1=O (stereo not drawn) [24d]						2 µg/mL (≈ 5.24 µM)	4 µg/mL (≈ 10.5 µM)			2 µg/mL (≈ 5.24 µM)	32 µg/mL (≈ 83.9 µM)	2 µg/mL (≈ 5.24 µM)	2 µg/mL (≈ 5.24 µM)	2 µg/mL (≈ 5.24 µM)	4 µg/mL (≈ 10.5 µM)		4 µg/mL (≈ 10.5 µM)		2 µg/mL (≈ 5.24 µM)	4 µg/mL (≈ 10.5 µM)	
CCCCCCCCCCCCCC(O)=C1C(=O)CCN(C(=O)c2ccccc2)C1=O [25c]						2 µg/mL (≈ 4.68 µM)	32 µg/mL (≈ 74.8 µM)			1 µg/mL (≈ 2.34 µM)	>64 µg/mL	1 µg/mL (≈ 2.34 µM)	1 µg/mL (≈ 2.34 µM)	1 µg/mL (≈ 2.34 µM)	8 µg/mL (≈ 18.7 µM)		2 µg/mL (≈ 4.68 µM)		2 µg/mL (≈ 4.68 µM)	4 µg/mL (≈ 9.35 µM)	
CCCCCCC(=O)N1CC(=O)C(=C(O)CC2CC3CCC2C3)C1=O (stereo not drawn) [27a]	1 µg/mL (≈ 2.88 µM)	1 µg/mL (≈ 2.88 µM)	0.5 µg/mL (≈ 1.44 µM)	4 µg/mL (≈ 11.5 µM)	2 µg/mL (≈ 5.76 µM)			Inactive^d	90.9 µM							> 100 µM		90.9 µM			MIC P1 (P1; Table 2): 1 µg/mL (≈ 2.88 µM); MIC S4 (S4; Table 2): 2 µg/mL (≈ 5.76 µM); MIC P9B (P9B; Table 2): 4 µg/mL (≈ 11.5 µM); MIC S2 ([1]; Table 2): 2 µg/mL (≈ 5.76 µM); MIC E1 (E1; Table 2): 1 µg/mL (≈ 2.88 µM); MIC S26 (S26; Table 2): 4 µg/mL (≈ 11.5 µM)

From US9765069B2, “Antimicrobial compounds” (OXFORD UNIVERSITY INNOVATION LIMITED, priority 2012, dated 2017)
